Measurements as given in patent publication US20140323521A1, “PHARMACEUTICAL COMPOSITIONS AND ADMINISTRATIONS THEREOF” (Vertex Pharmaceuticals Incorporated, priority 2011, published 2014).

Key:
Test in all cases: FRT cell Ussing chamber chloride transport assay
Type in all cases: cell-based
human CFTR mutant S549R = molecular target: T1, human CFTR mutant S549R (Homo sapiens, UniProt P13569, S549R); details: FRT cells expressing S549R CFTR
T1 construct: expressed in transfected cells; host or cells: Fisher rat thyroid (FRT) FlpIn cells, pcDNA5/FRT
T1 sequence (P13569 whole entry S549R): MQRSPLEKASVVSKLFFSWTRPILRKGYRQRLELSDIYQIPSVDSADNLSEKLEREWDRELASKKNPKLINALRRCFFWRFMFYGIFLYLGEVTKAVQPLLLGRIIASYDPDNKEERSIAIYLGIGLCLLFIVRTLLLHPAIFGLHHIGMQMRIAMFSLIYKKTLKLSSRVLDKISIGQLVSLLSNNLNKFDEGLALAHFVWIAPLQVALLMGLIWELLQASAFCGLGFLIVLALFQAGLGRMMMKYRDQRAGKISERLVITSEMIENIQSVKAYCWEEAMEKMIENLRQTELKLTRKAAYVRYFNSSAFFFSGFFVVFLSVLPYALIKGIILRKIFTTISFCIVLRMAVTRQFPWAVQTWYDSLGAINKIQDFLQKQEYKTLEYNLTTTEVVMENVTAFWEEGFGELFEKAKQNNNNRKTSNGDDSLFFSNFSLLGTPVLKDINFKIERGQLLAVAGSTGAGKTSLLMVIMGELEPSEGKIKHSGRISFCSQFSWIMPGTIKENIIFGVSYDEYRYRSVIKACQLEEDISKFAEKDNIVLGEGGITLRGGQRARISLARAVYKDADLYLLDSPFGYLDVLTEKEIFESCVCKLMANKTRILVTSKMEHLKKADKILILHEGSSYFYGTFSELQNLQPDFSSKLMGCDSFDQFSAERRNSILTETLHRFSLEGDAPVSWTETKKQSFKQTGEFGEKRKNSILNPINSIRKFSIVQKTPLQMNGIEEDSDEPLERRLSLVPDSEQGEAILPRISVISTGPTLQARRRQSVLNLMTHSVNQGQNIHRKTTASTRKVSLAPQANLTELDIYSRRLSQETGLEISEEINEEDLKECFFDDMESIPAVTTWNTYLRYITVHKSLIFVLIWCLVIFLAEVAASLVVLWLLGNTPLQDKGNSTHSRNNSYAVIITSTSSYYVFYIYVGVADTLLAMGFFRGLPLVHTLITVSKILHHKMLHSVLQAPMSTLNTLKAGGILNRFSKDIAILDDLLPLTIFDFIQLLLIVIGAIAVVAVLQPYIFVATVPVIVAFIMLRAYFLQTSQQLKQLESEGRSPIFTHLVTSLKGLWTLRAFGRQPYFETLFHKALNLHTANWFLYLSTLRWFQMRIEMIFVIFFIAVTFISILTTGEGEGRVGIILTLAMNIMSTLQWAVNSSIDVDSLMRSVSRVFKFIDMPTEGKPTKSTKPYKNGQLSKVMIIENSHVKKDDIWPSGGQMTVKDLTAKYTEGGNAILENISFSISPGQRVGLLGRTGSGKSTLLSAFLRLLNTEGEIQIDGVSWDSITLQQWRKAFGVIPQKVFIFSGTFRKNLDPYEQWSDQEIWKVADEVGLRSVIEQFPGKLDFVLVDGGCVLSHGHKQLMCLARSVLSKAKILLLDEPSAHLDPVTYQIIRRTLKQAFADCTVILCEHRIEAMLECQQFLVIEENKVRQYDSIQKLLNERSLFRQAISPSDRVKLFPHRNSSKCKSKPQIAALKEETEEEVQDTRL
Text: (§1) DNA cloning: Wild-type CFTR coding region was inserted into pcDNA5/FRT (Invitrogen, San Diego, Calif.) between EcoRV and ApaI.
(§2) Single CFTR gene mutations were introduced into the wild-type CFTR coding sequence by using QuickChange XL site-directed mutagenesis kit (Stratagene, Cambridge, UK). The CFTR coding region as well as its promoter sequence and 3′ untranslated sequence was fully sequenced to confirm the mutagenesis reaction.
(§3) The CFTR gene was stably expressed in Fisher rat thyroid (FRT) cells through FlpIn system. The FRT-FlpIn host cell line was generated by stably transfecting FRT cells with pFRT/lacZeo. The single integration of a FRT site was confirmed by Southern blot. After the mutant CFTR DNA was transfected into the FRT-FlpIn host cell line, the cells were incubate at 37° C. in Coon's modified Ham's F12 containing 10% FBS, 1% Pen/Strep, and 36 ml of Na-Bicarbonate for up to 8 passages under hygromycin selection (200 ug/ml).
(§4) All cells were grown on Costar® Snapwell™ cell culture inserts at maintained at 37° C. prior to recording. The cell culture inserts were mounted into an Ussing chamber (VCC MC8; Physiologic Instruments, Inc., San Diego, Calif.) to record ISC in the voltage-clamp mode (Vhold=0 mV). For FRT cells, the basolateral membrane was permeabilized with 360 μg/ml Nystatin and a basolateral to apical Cl− gradient was established. The basolateral bath solution contained (in mM); 135 NaCl, 1.2 CaCl2, 1.2 MgCl2, 2.4 K2HPO4, 0.6 KHPO4, 10 N-2-hydroxyethylpiperazine-N′-2-ethanesulfonic acid (HEPES), and 10 dextrose (titrated to pH 7.4 with NaOH). The apical NaCl was replaced by equimolar Na+ gluconate (titrated to pH 7.4 with NaOH). For HBE cells, the ISC was measured in the presence of a basolateral to apical Cl− gradient. The normal Cl− solution contained (in mM) 145 NaCl, 3.3 K2HPO4, 1.2 MgCl2, 1.2 CaCl2, 10 Glucose, 10 HEPES (pH adjusted to 7.35 with NaOH) and the low Cl− solution contained (in mM) 145 NaGluconate, 1.2 MgCl2, 1.2 CaCl2, 10 glucose, 10 HEPES (pH adjusted to 7.35 with NaOH). All recordings were digitally acquired using a Acquire and Analyze software (version 2; Physiologic Instruments, Inc. San Diego, Calif.).
(§5) The 10 μM forskolin stimulated response in FRT cell expressing different mutant CFTR forms or in HBE cells isolated from CF patients was normalized to the 10 μM forskolin-stimulated response in FRT cells expressing wild-type CFTR or in HBE isolated from non-CF individuals and expressed as % wild-type CFTR. In HBE, amiloride was added prior to forskolin application to block the epithelial Na+ channel.

human CFTR mutant G551S = molecular target: T2, human CFTR mutant G551S (Homo sapiens, UniProt P13569, G551S); details: FRT cells expressing G551S CFTR
T2 construct: expressed in transfected cells; host or cells: Fisher rat thyroid (FRT) FlpIn cells, pcDNA5/FRT
T2 sequence (P13569 whole entry G551S): as the sequence (P13569 whole entry S549R) above, with R549S, G551S counted along it
Text: as §1, §2, §3, §4, §5

human CFTR mutant G1349D = molecular target: T3, human CFTR mutant G1349D (Homo sapiens, UniProt P13569, G1349D); details: FRT cells expressing G1349D CFTR
T3 construct: expressed in transfected cells; host or cells: Fisher rat thyroid (FRT) FlpIn cells, pcDNA5/FRT
T3 sequence (P13569 whole entry G1349D): as the sequence (P13569 whole entry S549R) above, with R549S, G1349D counted along it
Text: as §1, §2, §3, §4, §5

human CFTR mutant S1251N = molecular target: T4, human CFTR mutant S1251N (Homo sapiens, UniProt P13569, S1251N); details: FRT cells expressing S1251N CFTR
T4 construct: expressed in transfected cells; host or cells: Fisher rat thyroid (FRT) FlpIn cells, pcDNA5/FRT
T4 sequence (P13569 whole entry S1251N): as the sequence (P13569 whole entry S549R) above, with R549S, S1251N counted along it
Text: as §1, §2, §3, §4, §5

human CFTR mutant S549N = molecular target: T5, human CFTR mutant S549N (Homo sapiens, UniProt P13569, S549N); details: FRT cells expressing S549N CFTR
T5 construct: expressed in transfected cells; host or cells: Fisher rat thyroid (FRT) FlpIn cells, pcDNA5/FRT
T5 sequence (P13569 whole entry S549N): as the sequence (P13569 whole entry S549R) above, with R549N counted along it
Text: as §1, §2, §3, §4, §5

human CFTR mutant G1244E = molecular target: T6, human CFTR mutant G1244E (Homo sapiens, UniProt P13569, G1244E); details: FRT cells expressing G1244E CFTR
T6 construct: expressed in transfected cells; host or cells: Fisher rat thyroid (FRT) FlpIn cells, pcDNA5/FRT
T6 sequence (P13569 whole entry G1244E): as the sequence (P13569 whole entry S549R) above, with R549S, G1244E counted along it
Text: as §1, §2, §3, §4, §5

human CFTR mutant G178R = molecular target: T7, human CFTR mutant G178R (Homo sapiens, UniProt P13569, G178R); details: FRT cells expressing G178R CFTR
T7 construct: expressed in transfected cells; host or cells: Fisher rat thyroid (FRT) FlpIn cells, pcDNA5/FRT
T7 sequence (P13569 whole entry G178R): as the sequence (P13569 whole entry S549R) above, with G178R, R549S counted along it
Text: as §1, §2, §3, §4, §5

human CFTR mutant G970R = molecular target: T8, human CFTR mutant G970R (Homo sapiens, UniProt P13569, G970R); details: FRT cells expressing G970R CFTR
T8 construct: expressed in transfected cells; host or cells: Fisher rat thyroid (FRT) FlpIn cells, pcDNA5/FRT
T8 sequence (P13569 whole entry G970R): as the sequence (P13569 whole entry S549R) above, with R549S, G970R counted along it
Text: as §1, §2, §3, §4, §5

human CFTR mutant S1255P = molecular target: T9, human CFTR mutant S1255P (Homo sapiens, UniProt P13569, S1255P); details: FRT cells expressing S1255P CFTR
T9 construct: expressed in transfected cells; host or cells: Fisher rat thyroid (FRT) FlpIn cells, pcDNA5/FRT
T9 sequence (P13569 whole entry S1255P): as the sequence (P13569 whole entry S549R) above, with R549S, S1255P counted along it
Text: as §1, §2, §3, §4, §5

Measured: increase in chloride transport, relative to baseline chloride transport

CC(C)(C)c1cc(C(C)(C)C)c(NC(=O)c2c[nH]c3ccccc3c2=O)cc1O [Compound 1, N-[2,4-bis(1,1-dimethylethyl)-5-hydroxyphenyl]-1,4-dihydro-4-oxoquinoline-3-carboxamide]
greater than 10 fold: all assays above
